According to the supplement of paper PMC10307832:

Legend:
Test in all cases: relative viability (nuclei count vs DMSO), 5 days (fraction); higher = more cells survive
[1] = compound: CC1=NN=C(O1)C2=NN=C(C=C2)N3CCC(CC3)OC4=C(C=CC(=C4)F)Cl + N=C(N)NC(=N)NCCc1ccccc1 [Phenformin] (partner 250 µM)
In short: (§1)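 Lung cancer cell lines were pin-tool dosed in 1536-well plates on the day after seeding, with either a lone drug or a fixed anchor-drug dose plus five library-drug doses (not always all listed) in √10 steps. Nuclei were counted on 4× images after 5 days. Relative viability is the ratio of treated-well to vehicle-well nuclei counts, with each value a median of duplicate plates.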

[2] = compound: CC(C)C[C@@H](C(=O)N[C@H](C(=O)OC1CCCC1)c1ccccc1)[C@H](O)C(=O)NO [Tosedostat] + Cc1cc(Nc2cc(N3CCN(C)CC3)nc(Sc3ccc(NC(=O)C4CC4)cc3)n2)n[nH]1 [Tozasertib] (partner 0.1 µM)
In short: as §1

[3] = compound: CC(C)C[C@@H](C(=O)N[C@H](C(=O)OC1CCCC1)c1ccccc1)[C@H](O)C(=O)NO [Tosedostat] + NC(=O)Nc1cc(-c2cccc(F)c2)sc1C(=O)N[C@H]1CCCNC1 [AZD7762] (partner 0.2 µM)
In short: as §1

[4] = compound: CC(C)C[C@@H](C(=O)N[C@H](C(=O)OC1CCCC1)c1ccccc1)[C@H](O)C(=O)NO [Tosedostat] + Nc1nc2[nH]cc(CCc3ccc(C(=O)N[C@@H](CCC(=O)O)C(=O)O)cc3)c2c(=O)[nH]1 [Pemetrexed] (partner 0.2 µM)
In short: as §1

Cell Line | relative viability ([1]; first compound 0.253 µM) | relative viability ([1]; first compound 2.53 µM) | relative viability ([1]; first compound 8 µM) | relative viability ([2]; first compound 0.02 µM) | relative viability ([2]; first compound 0.06325 µM) | relative viability ([2]; first compound 0.6325 µM) | relative viability ([2]; first compound 2 µM) | relative viability ([3]; first compound 0.02 µM) | relative viability ([3]; first compound 0.06325 µM) | relative viability ([3]; first compound 0.2 µM) | relative viability ([3]; first compound 0.6325 µM) | relative viability ([3]; first compound 2 µM) | relative viability ([1]; first compound 0.8 µM) | relative viability ([4]; first compound 0.02 µM) | relative viability ([4]; first compound 0.06325 µM) | relative viability ([4]; first compound 0.2 µM) | relative viability ([4]; first compound 0.6325 µM) | relative viability ([4]; first compound 2 µM) | relative viability ([2]; first compound 0.2 µM)
NCI-H727 | 0.613 | 0.496 | 0.482 | 0.586 | 0.535 | 0.45 | 0.415 | 0.667 | 0.559 | 0.65 | 0.669 | 0.53 | – | – | – | – | – | – | –
NCI-H1563 | 0.646 | 0.612 | 0.641 | – | – | – | – | – | – | – | – | – | 0.659 | 0.838 | 0.99 | 0.797 | 1.14 | 0.839 | –
NCI-H1623 | 0.568 | 0.627 | 0.574 | 0.41 | 0.42 | 0.387 | 0.42 | – | – | – | – | – | 0.545 | – | – | – | – | – | 0.425
NCI-H1648 | – | – | – | 0.518 | 0.493 | 0.576 | 0.433 | 0.678 | 0.735 | 0.768 | 0.538 | 0.509 | – | 0.656 | 0.736 | 0.99 | 0.966 | 0.532 | 0.402
NCI-H1650 | – | 0.445 | 0.453 | 0.333 | 0.503 | 0.238 | 0.242 | – | – | – | – | – | 0.403 | 0.416 | 0.392 | 0.413 | 0.475 | 0.526 | 0.339
NCI-H1703 | – | – | – | – | – | – | – | 0.122 | 0.133 | 0.138 | 0.122 | 0.0985 | – | – | – | – | – | – | –
NCI-H1792 | 0.294 | 0.264 | 0.384 | – | – | – | – | 0.523 | 0.77 | 0.606 | 0.644 | 0.586 | 0.416 | 0.92 | 0.884 | 0.838 | 0.935 | 0.658 | –
NCI-H2009 | 0.456 | 0.424 | 0.378 | 0.821 | 0.765 | 0.647 | 0.607 | – | – | – | – | – | 0.418 | 1.07 | 0.998 | 1.07 | 0.977 | 1.1 | 0.697
NCI-H2023 | 0.401 | 0.387 | 0.324 | 0.378 | 0.319 | 0.291 | 0.169 | – | – | – | – | – | 0.362 | 0.22 | 0.23 | 0.292 | 0.285 | 0.212 | 0.35
NCI-H2228 | 0.313 | 0.294 | 0.401 | 0.375 | 0.286 | 0.101 | 0.0875 | – | – | – | – | – | 0.257 | 0.328 | 0.32 | 0.317 | 0.338 | 0.256 | 0.216
SK-LU-1 | 0.584 | 0.534 | 0.475 | 0.356 | 0.282 | 0.285 | 0.225 | – | – | – | – | – | – | 1 | 0.9 | 1.05 | 0.962 | 0.868 | 0.275
SK-MES-1 | 0.58 | 0.475 | 0.414 | 1.01 | 0.822 | 0.801 | 0.61 | – | – | – | – | – | 0.532 | 1.01 | 1 | 1.11 | 1.14 | 0.993 | 0.95
SW 1573 | 0.371 | 0.351 | 0.363 | 0.183 | 0.193 | 0.219 | 0.157 | – | – | – | – | – | 0.329 | 0.972 | 0.856 | 0.899 | 0.777 | 1 | 0.205
